The record followed here is patent US20200171132A1, “METHODS OF INHIBITING FUNGAL CERAMIDE SYNTHASE FOR TREATMENT OF CRYPTOCOCCUS NEOFORMANS INFECTION” (The Research Foundation for the State University of New York, priority 2017, published 2020).

This assay relates to fungal Cer1 (Cn Cer1). The experiment in a line: High throughput ceramide synthase assay (96-well, NBD-sphingosine, SPE). The note with it: 1 micromolar; wells contained 10 compounds each; 1 hour at 37° C. Format: biochemical, Cryptococcus neoformans. The procedure: The compounds were first diluted to 1 mM each (1:10 dilution with 10% DMSO) with a physiological buffer (YNB medium buffered with HEPES at pH 7.4 containing 2% glucose) and subsequently diluted to 300 μM (1:3.3 dilution) with the same medium (3% DMSO). A 100-μl aliquot of this solution was placed into each well of a 96-well master plate and stored at −20° C. until use. Each well in the screening master plates contained 10 compounds at 1 μM each. The ceramide synthase reaction was performed in a 96-well plate format using fungal Cer1 (Cn Cer1) or human ceramide synthase (Hu-Cer1, -Cer2, -Cer3, -Cer4, -Cer5, or -Cer6) enzyme, containing NBD-Sphingosine (NBD-Sph) (Avanti Polar Lipids) and 18:0 Coenzyme A (Stearoyl Coenzyme A, Avanti Polar Lipids) as substrates using the following concentrations: 10 μM NBD-Sph and 50 μM fatty acid CoA. The reaction mixture was prepared in HEPES buffer (20 mM HEPES, pH 7.2, 25 mM KCl, 250 mM sucrose, and 2 mM MgCl2). Library compounds were added and plate incubated for 1 hour at 37 C. The lipid product (NBD-ceramide) was separated using solid phase extraction (SPE) column chromatography using Strata® C18-E, 96 well plates (Phenomenex). Reaction product was measured using a plate reader.
The Cn Cer1 enzyme is expressed using the pYES-GAL1 galactose inducible system in Saccharomyces cerevisiae whereas the mammalian ceramide synthases (Cer1-6) are induced with tetracycline using the Tet-On System in HCT-116 cells under the control of Geneticin and Blasticidin. Cn Cer1 or Hu Cer1-6 enzymes were extracted using the tag system and enriched in microsomal preparation. Before using the enzymes in the plate screening, each preparation was tested for ceramide activity using the TLC assay illustrated in FIG. 11, to make sure the ceramide synthase activity works as expected. Appropriate negative controls (e.g. Cn Cer1 on glucose or Hu Cer1 in absence of tetracycline) were included in each plate during the screening.
The ceramide synthase assay was performed using NBD-Sphingosine (NBD-Sph) (Avanti polar lipids) and 18:0 Coenzyme A (Stearoyl Coenzyme A, Avanti polar lipids) as substrates using the following concentrations: 10 μM NBD-Sph and 50 μM fatty acid CoA. Enzyme(s)—ceramide synthases—were prepared using microsome purification of the yeasts or mammalian expression system. For yeast, the S. cerevisiae strain BY4741 expressing C. neoformans ceramide synthase 1 using the pYES GAL1 expression system was grown in 200 ml of liquid YNB 2% galactose medium for 16 hours. The same strain grown in the same medium but containing 2% glucose was used as a negative control because the Cn Cer1 gene is under the control of the galactose promoter (GAL1). Cells were then harvested by centrifugation, resuspended in 2 ml of Lysis Buffer (20 mM HEPES/KOH, pH 7.4, 25 mM KCl, 2 mM MgCl2, 250 mM sorbitol) and 50 μl of proteinase inhibitor mixture (Sigma-Aldrich)/g of cells, and broken by bead-bashing at 4° C. for 1.5 h. Cell debris were removed by centrifuging at 1000 g at 4° C. for 10 min. The supernatant was loaded on a 60% (w/w) sucrose cushion and centrifuged at 100,000 g for 1 h. The microsomes were collected from the interphase, snap frozen in liquid nitrogen, and stored at −80° C. until use.
The high throughput assays were adapted from the Avanti Ceramide synthase assay kit (https://avantilipids.com/product/640011/). The reactions were first downsized to 20 μl in a 96-well plate format using human ceramide synthases (Cer1, […], Cer3, Cer4, Cer5, or Cer6) along with Cn Cer1. Lipid product (NBD-ceramide) was separated using solid phase extraction (SPE) column chromatography using Strata® C18-E, 96 well plates (Phenomenex). The reaction product was measured using a plate reader, as in FIG. 12. The Z′ score of the assay is 0.80194, which is considered excellent (FIG. 12).
An initial screening yielded compounds 1-10 (Table 3). […]

With `CC(C)Nc1cc(-c2ccc3c(c2)OCO3)nc(N)n1` [Compound 1], the “% reduction in activity (inhibition of Cn Cer1 synthse activity)” value amounted to 94.43%.
For `OCc1cc(-c2ccc3ccccc3n2)ccc1F` [Compound 2] the value was 94.43%; for `C=CCc1cc(-c2[nH]cnc2-c2ccccc2)cc(OC)c1O` [Compound 3], 94.43%; for `Cc1ccsc1C(=O)N1CCN2C(=O)CNC(=O)C2C1` (centres unmarked) [Compound 4], 94.43%.
On to `Cn1ccnc1CN(Cc1cc2ccccc2o1)C1CC1` [Compound 5], for which the “% reduction in activity (inhibition of Cn Cer1 synthse activity)” value is 94.43%.
Turning to `CCN(C/C=C/c1ccccc1)C(=O)c1cc2cccnc2nc1C` [Compound 6], the “% reduction in activity (inhibition of Cn Cer1 synthse activity)” value was determined as 94.43%.
For `CCN(CC1CCCCO1)C(=O)c1cccc(-n2cnnc2)c1` (centres unmarked) [Compound 7], the “% reduction in activity (inhibition of Cn Cer1 synthse activity)” value was determined as 94.43%.
For `CC(C)CN1CC(C(=O)NCc2nncn2C2CCCCC2)CC1=O` (centres unmarked) [Compound 8] the value was 94.43%; for `CC(Cn1ccc2ccccc21)NC(=O)c1ccc(-n2cnnc2)cc1` (centres unmarked) [Compound 9], 94.43%; for `CCN(C/C=C/c1ccccc1)C(=O)c1ccc(-n2cnnc2)cc1` [Compound 10], 94.43%.
For `Cc1ccc(F)cc1NC(=O)N1CCOC2(CNCCOC2)C1` (centres unmarked) [Compound 11] the value was 87.67%; for `c1cncc(COC2CCN(Cc3ccc(-c4cc[nH]n4)s3)CC2)c1` [Compound 12], 87.67%.
For `CN1CC2(CCCN(C(=O)c3ccc4c(c3)OCCN4C)CC2)OC1=O` (centres unmarked) [Compound 13] the value was 87.67%; for `CN(Cc1cc2cc(F)ccc2[nH]1)C(=O)c1ccccc1C1CCNC1` (centres unmarked) [Compound 14], 87.67%.
Turning to `CCn1c(C2CCN(C(=O)C(N)CC3CCCC3)CC2)nn(C)c1=O` (centres unmarked) [Compound 15], the “% reduction in activity (inhibition of Cn Cer1 synthse activity)” value was determined as 87.67%.
Take `Cc1nc[nH]c1-c1nccn1C(C)c1cccs1` (centres unmarked) [Compound 16]: the “% reduction in activity (inhibition of Cn Cer1 synthse activity)” value is listed as 87.67%.
Regarding `Clc1cccc2ccc(CN3CCn4cncc4C3)nc12` [Compound 17], the “% reduction in activity (inhibition of Cn Cer1 synthse activity)” value turned out to be 87.67%.
As for `COc1cccc2c1OCCCN(C(=O)c1cn3c(n1)CNCC3)C2` [Compound 18], the “% reduction in activity (inhibition of Cn Cer1 synthse activity)” value is 87.67%.
Take `FC(F)(F)C1CCN(Cc2cc3n(n2)CCNC3)CC1` [Compound 19]: the “% reduction in activity (inhibition of Cn Cer1 synthse activity)” value is given as 87.67%.
For the compound `Fc1cccc(CN2CCN(Cc3cnc(NCC4CCCO4)nc3)CC2)c1` (centres unmarked) [Compound 20], the “% reduction in activity (inhibition of Cn Cer1 synthse activity)” value amounted to 87.67%.
`CCCCN(Cc1ccco1)C(=O)c1cc(C)[nH]c(=O)c1` [Compound 21]: the “% reduction in activity (inhibition of Cn Cer1 synthse activity)” value came out at 86.1%.
As for `O=C(NCCC1=CCCN(CCCF)C1)c1cccs1` [Compound 22], the “% reduction in activity (inhibition of Cn Cer1 synthse activity)” value came to 86.1%.
For `CCN(Cc1ccc(-n2cccn2)cc1)CC1CCOCC1` [Compound 23] the value was 86.1%.
The value for `O=C(NCC1(Cn2cccn2)CC1)c1ccccc1N1CCOCC1` [Compound 24] was 86.1%; that for `C/C(=C\c1ccccc1)CN1CCC(CN)C1` (centres unmarked) [Compound 25] was 86.1%; that for `CCC[C@@H]1C[C@H](NC(C)=O)C[C@H](C2CCCCC2)O1` [Compound 26] was 86.1%.
`CCc1ncc(C(=O)N2CCN(CC(C)C)C(=O)C2C)cn1` (centres unmarked) [Compound 27]: the “% reduction in activity (inhibition of Cn Cer1 synthse activity)” value was 86.1%.
The value for `COc1cc(F)c(C2CC(=O)Nc3cc(N4CCNC4=O)ccc32)cc1OC` (centres unmarked) [Compound 28] was 86.1%; that for `Cc1cc2c(cc1O)NC(=O)CC2c1c[nH]nc1-c1ccc(F)cc1` (centres unmarked) [Compound 29] was 86.1%.
Regarding `Cc1nc(CC(=O)NCCSc2nnc(C)s2)cs1` [Compound 30], the “% reduction in activity (inhibition of Cn Cer1 synthse activity)” value was 86.1%.
For `O=C1NCC2(CCCN(c3ncnc4[nH]ccc34)CC2)O1` (centres unmarked) [Compound 31] the value was 85.73%.
For `O=C1NCC2(CCCN(c3nnnn3-c3ccccc3)CC2)O1` (centres unmarked) [Compound 32] the value was 85.73%; for `Cc1nc(C(C)C)ncc1C(=O)N(C)Cc1snnc1C` [Compound 33], 85.73%; for `CCn1c(C2CCN(C(=O)C(C)n3cncn3)CC2)nn(C)c1=O` (centres unmarked) [Compound 34], 85.73%.
The value for `CCSc1nc(CC(=O)N2[C@@H]3CC[C@H]2C[C@@H](O)C3)cs1` [Compound 35] was 85.73%.
As for `Cc1noc(C)c1-n1c(CCCN2CCOCC2)n[nH]c1=O` [Compound 36], the “% reduction in activity (inhibition of Cn Cer1 synthse activity)” value is 85.73%.
Consider `CC(C)Cc1n[nH]c(Cn2nc(Cc3ccccc3)c3ccccc3c2=O)n1` [Compound 37], for which the “% reduction in activity (inhibition of Cn Cer1 synthse activity)” value was found to be 85.73%.
In the case of `Cc1cc(C)n2nc(C(=O)N3CCC4(CN(C)C(=O)O4)C3)cc2n1` (centres unmarked) [Compound 38], the “% reduction in activity (inhibition of Cn Cer1 synthse activity)” value was 85.73%.
The value for `CN(C)CC1COCCN(Cc2c(-c3ccccc3)nc3ncccn23)C1` (centres unmarked) [Compound 39] was 85.73%; that for `NC(=O)c1cccc(CC2CCN(C(=O)CCn3ccccc3=O)C2)c1` (centres unmarked) [Compound 40] was 85.73%; that for `O=C(Nc1cccnc1)c1ccc(-c2cccc3cccnc23)o1` [Compound 41] was 84.91%.
Take `CN1CCC2(CC1)CCN(C(=O)c1cccc(Oc3ncccn3)c1)C2` [Compound 42]: the “% reduction in activity (inhibition of Cn Cer1 synthse activity)” value came out at 84.91%.
The value for `CC(=O)N(C)CC1=CCCN(Cc2cc(F)c(F)cc2F)C1` [Compound 43] was 84.91%; that for `O=C1NCC(=O)N2CCN(C(=O)c3cccc4c3NCCC4)CC12` (centres unmarked) [Compound 44] was 84.91%.
For `CC(=O)N(CCc1ccc(F)cc1)CC1=CCCN(CCO)C1` [Compound 45] the value was 84.91%.
As for `CNc1ncc(CN(C)C(=O)c2cnn[nH]2)cn1` [Compound 46], the “% reduction in activity (inhibition of Cn Cer1 synthse activity)” value is listed as 84.91%.
In the case of `Cc1cc2[nH]c(CN3CCCC3c3nc4cc(F)ccc4[nH]3)cc(=O)n2n1` (centres unmarked) [Compound 47], the “% reduction in activity (inhibition of Cn Cer1 synthse activity)” value is given as 84.91%.
For the compound `O=C(c1cnn[nH]1)N1CCC(Oc2ncccn2)CC1` [Compound 48], the “% reduction in activity (inhibition of Cn Cer1 synthse activity)” value turned out to be 84.91%.
For `Cc1ccccc1-n1cc(CN(C)C(=O)c2ccccc2C2CCNC2)cn1` (centres unmarked) [Compound 49] the value was 84.91%; for `CCc1nc(C)sc1CNc1nc(-c2cccnc2)nc2c1cnn2C` [Compound 50], 84.91%.
